Assay results from US6881824B1, “Peptides suitable for use in antigen specific immunosuppressive therapy” (Akzo Nobel N.V., priority 1996, dated 2005).
Ends that are not written are not given here.

What was measured:
[1] = target: T1, DR4 (DRB1*0401) molecules (Homo sapiens, UniProt P01903+P01911, A100K/A169T/F76Y/I96L/K127E/L162R/M171V/N62H/P40V/Q125Y/R42H/S133A/S149N/S66Y/V115G/V209L/W38E); assay: Peptide HLA-DR binding assay (semi-quantitative competition binding); conditions: for IC50: competition with biotinylated marker peptide HA 309 Y→F, pH5.0, 44 hr RT
T1 construct: molecules were purified from the homozygous EBV-transformed human B lymphoblastoid cell lines Huly138IC2 and BM92 using the mAb; endogenous in cells
Protocol: DR4 (DRB1*0401) and DR4 (DRB1*0404) molecules were purified from the homozygous EBV-transformed human B lymphoblastoid cell lines Huly138IC2 and BM92 using the mAb t243, directed against a monomorphic determinant on the DR-complex (Lampson, L. A and R. Levy (1980), J. Immunol. 125:293 299).
The peptide binding studies were performed using a semi-quantitative competition binding assay (Joosten et al 1994, Int. Immunol. 6, 751). Briefly, purified HLA-DR molecules (30 nM DR4(DRB1*0401) or 15 nM DR4 (DRB1*0404) were incubated at pH5.0 with 50 nM biotinylated marker peptide (HA 309y→F) and a concentration range of competitor peptide in a final volume of 25 μl binding buffer (PBS containing 0.01% […], 0.05% NP-40, 5% DMSO, 1 mM AEBSF, 1 mM N-ethyl maleimide, 8 mM EDTA and 10 μm pepstatin A). After 44 hr of incubation at RT, HLA DR bound marker peptide was separated from free marker peptide using a 96 well vacuum dotblot apparatus (Hybri. dot, BRL) and a nitrocellulose membrane (Hybond ECL, Amersham, UK). The nitrocellulose filters were blocked with 0.5% DNA blocking reagent (Boehringer) in 0.1 M maleic acid, 150 mM NaCl, pH7.5.
After 0.5-1 hr, the filters were washed in PBS, 0.05% Tween 20 (Sigma) and incubated with Strepcavidin-HRPO (Southern Biotechnology) in a 1:10.000 dilution. Biotinylated peptides were detected by enhanced chemiluminescence using a Western Blot ECL kit (Amersham). Exposure of the preflashed films (Hyperfilm-ECL, Amersham) was for 10 min. The spots were analysed by scanning the films and using Image Quant/Excel software for analysis.
The affinity of a given peptide for binding DRB1*0401-encoded molecules was related to competition with the marker peptide. This relative binding affinity was defined as the peptide concentration at which the signal was reduced to 50% (IC50).

[2] = system: PBMC from RA patients carrying the DR4 (DRB1*0401) specificity; assay: Peptide-induced proliferative responses of PBMC from RA patients; type: cell-based, human; conditions: for Peptide-induced proliferative response of PBMC, RA 272: RA patient 272, 0401, R; for Peptide-induced proliferative response of PBMC, RA 276: RA patient 276, 0401, R; for Peptide-induced proliferative response of PBMC, RA 286: RA patient 286, 0401, R
Protocol: This study included 7 DR4(DRB1*0401)-positive patients diagnosed as suffering from RA according to the ARA criteria (Arnett et al., (1988), Arthritis Rheum. 31, 315). Peripheral blood samples were obtained with informed consent. There were five women and two men aged 46-79 years. Their duration of disease ranged from over 10 to over 30 years. Three out of 7 patients had at least 3 swollen joints. […] All patients were on medication: Four patients were treated with prednisone, three patients received anti-rheumatic agents and 4 patients were treated with NSAID's as well.
(§1) In order to identify T-cell epitopes within HC gp-39, 59 peptides of 16 AA in length, overlapping by 10 AA were tested for their capacity to induce a proliferative response in PBMC from RA patients and healthy controls carrying the DR4 (DRB1*0401) specificity (Table 1).
(§2) PBMC obtained from heparinized venous peripheral blood were isolated by standard centrifugation on a Ficoll-Paque gradient. Cells were cultured in four-fold at a concentration of 1,5×10^5 cells/well in medium supplemented with 10% heat-inactivated, autologous plasma, L-glutamine, 2-ME and antibiotics in flatbottomed microtiter plates. Cells were incubated in medium alone or in the presence of phytohaemagglutinin (PHA) (2:5 μg/ml) to assert cell viability, or in the presence of 10 or 100 μg/ml of the HC gp-39-derived peptides. In several cases, sets of 2 or 3 sequential peptides were tested due to limited PBMC numbers of individual donors. Cultures were incubated in a total volume of 210 μl for 7 days at […] in a humidified atmosphere of 5% CO2. Cultures were pulsed during the last 18 hours with 0.25 μCi ^3H-thymidine ([^3H]TdR). Cells were harvested on glassfiber filters and [^3H] TdR incorporation was measured by gas scintillation (Packard Matrix 96 βcounter). Only peptides inducing a proliferative response at both 10 and 100 μg/ml were considered to contain a T-cell epitope. Responses were defined positive if stimulation index values (SI, antigen-specific counts per 5 min (cp5 m)/background cp5 m) exceeded or equaled 2.
(§3) T-cell reactivity to HC gp-39-derived peptide as analyzed by measuring the PBMC proliferative response in DR4 (DRB1*0401)-positive RA patients and healthy donors. Proliferative responses were tested in autologous plasma. In Table IIIA and IIIB the results of 7 experiments are presented showing the responses of RA patients (Table IIIA) and the responses of healthy donors (Table IIIB) to 59 overlapping sequences derived from HC gp-39.

[3] = system: PBMC from healthy donors carrying the DR4 (DRB1*0401) specificity; assay: Peptide-induced proliferative responses of PBMC from healthy donors; type: cell-based, human; conditions: for Peptide-induced proliferative response of PBMC, HD 230: healthy donor 230, 0401, R
Protocol: Peripheral blood samples from 5 healthy donors carrying the DR4(DRB1*0401) specificity were obtained with informed consent and included in this study as a control.
as §1, §2, §3

[4] = system: PBMC from RA patients and healthy controls carrying the DR4 (DRB1*0401) specificity; assay: Proliferative responses of blood mononuclear cells, RA patients and healthy donors taken together; type: cell-based, human; conditions: for Responses to the individual peptides (PBMC proliferation), identifying T-cell epitopes: any donor
Protocol: as §1, §2, §3

[5] = target: T2, DR4 (DRB1*0401) molecules purified from the homozygous EBV-transformed human B lymphoblastoid cell line … (human, UniProt P01903 26-254)
[6] = target: T2, DR4 (DRB1*0401) molecules purified from …; assay: competition binding assay on purified DR4(DRB1*0401)
[7] = 100 and 10 microgram/ml, 7 days, 3H-thymidine incorporation

Molecule | Relative affinity of binding to DR4 (DRB1*0401), in words [1] | IC50 ([1]; Table IIIA) [µM] | IC50 ([1]; Table IIIB) [µM] | Peptide-induced proliferative response of PBMC, RA 272 [2, 7] | Response of PBMC from RA patient 272 to individual peptides, in words [2] | Presence of T-cell epitopes confirmed by PBMC of healthy donor 230 [3] | Peptide-induced proliferative response of PBMC, HD 230 [3, 7] | Responses to the individual peptides (PBMC proliferation), identifying T-cell epitopes [4] | IC50 [5] [µM] | binding result [6] | further results
DYAVGYMLRLGAPASK [compound 37, DYAVGYMLRLGAPASK] | relatively high affinity | < 1 | < 1 | pos (positive responses to both 100 and 10 microgram/ml of peptide or sets of peptides (SI≧2 were regarded positive)) | appeared to respond | confirmed the presence of T-cell epitopes | pos (positive responses to both 100 and 10 microgram/ml of peptide or sets of peptides (SI>2 were regarded positive)) | observed in one or more donors |  |  | Peptide-induced proliferative response of PBMC, HD 155 ([3]; healthy donor 155, 0401, R, 100 and 10 microgram/ml, 7 days, 3H-thymidine incorporation): pos (positive responses to both 100 and 10 microgram/ml of peptide or sets of peptides (SI>2 were regarded positive)); Peptide-induced proliferative response of PBMC, HD 235 ([3]; healthy donor 235, 0401, R, 100 and 10 microgram/ml, 7 days, 3H-thymidine incorporation): pos (positive responses to both 100 and 10 microgram/ml of peptide or sets of peptides (SI>2 were regarded positive))
QHLDFISIMTYDFHGA [peptide 30, QHLDFISIMTYDFHGA] | relatively high affinity | < 1 | < 1 | pos (positive responses to both 100 and 10 microgram/ml of peptide or sets of peptides (SI≧2 were regarded positive)) | appeared to respond | confirmed the presence of T-cell epitopes | pos (positive responses to both 100 and 10 microgram/ml of peptide or sets of peptides (SI>2 were regarded positive)) | observed in one or more donors |  |  | Peptide-induced proliferative response of PBMC, RA 262 ([2]; RA patient 262, 0401, R, 100 and 10 microgram/ml, 7 days, 3H-thymidine incorporation): pos (positive responses to both 100 and 10 microgram/ml of peptide or sets of peptides (SI≧2 were regarded positive)); Peptide-induced proliferative response of PBMC, RA 276 [2, 7]: pos (positive responses to both 100 and 10 microgram/ml of peptide or sets of peptides (SI≧2 were regarded positive)); Peptide-induced proliferative response of PBMC, RA 286 [2, 7]: pos (positive responses to both 100 and 10 microgram/ml of peptide or sets of peptides (SI≧2 were regarded positive)); Peptides or sets of peptides most frequently recognized ([4]; overall, all donors): most frequently recognized
YKLVCYYTSWSQYREG [peptide 1, YKLVCYYTSWSQYREG] | relatively high affinity | < 1 | < 1 | pos (positive responses to both 100 and 10 microgram/ml of peptide or sets of peptides (SI≧2 were regarded positive)) | appeared to respond | confirmed the presence of T-cell epitopes | pos (positive responses to both 100 and 10 microgram/ml of peptide or sets of peptides (SI>2 were regarded positive)) | observed in one or more donors |  |  | 
LDRFLCTHIIYSFANI [compound 5, LDRFLCTHIIYSFANI] | relatively high affinity | < 1 | < 1 | pos (positive responses to both 100 and 10 microgram/ml of peptide or sets of peptides (SI≧2 were regarded positive)) | appeared to respond | confirmed the presence of T-cell epitopes | pos (positive responses to both 100 and 10 microgram/ml of peptide or sets of peptides (SI>2 were regarded positive)) | observed in one or more donors |  |  | Peptide-induced proliferative response of PBMC, RA 259 ([2]; RA patient 259, 0401, R, 100 and 10 microgram/ml, 7 days, 3H-thymidine incorporation): pos (positive responses to both 100 and 10 microgram/ml of peptide or sets of peptides (SI≧2 were regarded positive))
THIIYSFANISNDHID [compound 6, THIIYSFANISNDHID] | relatively high affinity | < 1 | < 1 | pos (positive responses to both 100 and 10 microgram/ml of peptide or sets of peptides (SI≧2 were regarded positive)) | appeared to respond | confirmed the presence of T-cell epitopes | pos (positive responses to both 100 and 10 microgram/ml of peptide or sets of peptides (SI>2 were regarded positive)) | observed in one or more donors |  |  | Peptide-induced proliferative response of PBMC, RA 276 [2, 7]: pos (positive responses to both 100 and 10 microgram/ml of peptide or sets of peptides (SI≧2 were regarded positive)); Peptide-induced proliferative response of PBMC, RA 286 [2, 7]: pos (positive responses to both 100 and 10 microgram/ml of peptide or sets of peptides (SI≧2 were regarded positive))
TFIKSVPPFLRTHGFD [HC gp-39 peptide 17 (residues 118-133)] |  |  |  |  |  |  |  |  | 1 to 10 | binds | 
YKLVCYYTSWSQYREG [HC gp-39 peptide 1 (residues 22-37)] |  |  |  |  |  |  |  |  | < 1 | binds | 
QHLDFISIMTYDFHGA [HC gp-39 peptide 30 (residues 196-211)] |  |  |  |  |  |  |  |  | < 1 | binds | 
DYAVGYMLRLGAPASK [HC gp-39 peptide 37 (residues 238-253)] |  |  |  |  |  |  |  |  | < 1 | binds | 
YLKDRQLAGAMVWALD [HC gp-39 peptide 54 (residues 340-355)] |  |  |  |  |  |  |  |  | < 1 | binds | 
